System: NOMO1
Assay: cell viability relative to DMSO control; higher = less cytotoxic
Details: 48 h
Outline: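 Viability was expressed as a per-plate percentage of DMSO wells, with cell-free wells as background. Leukemia cells (NOMO1 or SEM at 500 cells/well, P12-Ichikawa at 1000 cells/well) were adapted for at least four passages in each medium and seeded in 1536-well plates (5 μl). Library compounds in DMSO were pin-dosed over an 11-point threefold series from 47 μM to 0.79 nM, and CellTiter-Glo One luminescence was read after 48 h at 37°C.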

[1] = HPLM + 10% dialyzed FBS, 0.000781 µM
[2] = HPLM + 10% dialyzed FBS, 0.00234 µM
[3] = HPLM + 10% dialyzed FBS, 0.00702 µM
[4] = HPLM + 10% dialyzed FBS, 0.0211 µM
[5] = HPLM + 10% dialyzed FBS, 0.0632 µM
[6] = HPLM + 10% dialyzed FBS, 0.19 µM
[7] = HPLM + 10% dialyzed FBS, 0.569 µM
[8] = HPLM + 10% dialyzed FBS, 1.71 µM
[9] = HPLM + 10% dialyzed FBS, 5.12 µM
[10] = HPLM + 10% dialyzed FBS, 15.4 µM
[11] = HPLM + 10% dialyzed FBS, 46.1 µM
[12] = RPMI 5 mM glucose + 10% FBS, 0.000781 µM
[13] = RPMI 5 mM glucose + 10% FBS, 0.00234 µM
[14] = RPMI 5 mM glucose + 10% FBS, 0.00702 µM
[15] = RPMI 5 mM glucose + 10% FBS, 0.0211 µM
[16] = RPMI 5 mM glucose + 10% FBS, 0.0632 µM
[17] = RPMI 5 mM glucose + 10% FBS, 0.19 µM
[18] = RPMI 5 mM glucose + 10% FBS, 0.569 µM
[19] = RPMI 5 mM glucose + 10% FBS, 1.71 µM
[20] = RPMI 5 mM glucose + 10% FBS, 5.12 µM
[21] = RPMI 5 mM glucose + 10% FBS, 15.4 µM
[22] = RPMI 5 mM glucose + 10% FBS, 46.1 µM
[23] = RPMI 5 mM glucose + 10% dialyzed FBS, 0.000781 µM
[24] = RPMI 5 mM glucose + 10% dialyzed FBS, 0.00234 µM
[25] = RPMI 5 mM glucose + 10% dialyzed FBS, 0.00702 µM
[26] = RPMI 5 mM glucose + 10% dialyzed FBS, 0.0211 µM
[27] = RPMI 5 mM glucose + 10% dialyzed FBS, 0.0632 µM
[28] = RPMI 5 mM glucose + 10% dialyzed FBS, 0.19 µM
[29] = RPMI 5 mM glucose + 10% dialyzed FBS, 0.569 µM
[30] = RPMI 5 mM glucose + 10% dialyzed FBS, 1.71 µM
[31] = RPMI 5 mM glucose + 10% dialyzed FBS, 5.12 µM
[32] = RPMI 5 mM glucose + 10% dialyzed FBS, 15.4 µM
[33] = RPMI 5 mM glucose + 10% dialyzed FBS, 46.1 µM

Row | SMILES | cell viability [1] | cell viability [2] | cell viability [3] | cell viability [4] | cell viability [5] | cell viability [6] | cell viability [7] | cell viability [8] | cell viability [9] | cell viability [10] | cell viability [11] | cell viability [12] | cell viability [13] | cell viability [14] | cell viability [15] | cell viability [16] | cell viability [17] | cell viability [18] | cell viability [19] | cell viability [20] | cell viability [21] | cell viability [22] | cell viability [23] | cell viability [24] | cell viability [25] | cell viability [26] | cell viability [27] | cell viability [28] | cell viability [29] | cell viability [30] | cell viability [31] | cell viability [32] | cell viability [33]
1 | C[C@H]1CCC/C=C/C2C[C@H](O)C[C@H]2[C@H](O)/C=C/C(=O)O1 (some centres undefined) | 4.93% | 15.8% | 26.7% | 7.07% | 5.05% | 5.57% | 5.16% | 4.43% | 3.51% | 3.39% | 2.94% | 5.4% | 7% | 5.78% | 5.27% | 5.07% | 4.51% | 4.27% | 3.98% | 1.66% | 1.88% | 3.46% | 79.5% | 6.02% | 10% | 5.74% | 4.22% | 4.83% | 4.29% | 3.43% | 2.6% | 2.61% | 2.61%
2 | CNC(=O)c1c(F)cccc1Nc1nc(Nc2cc3c(cc2OC)CCN3C(=O)CN(C)C)nc2[nH]ccc12 | 89.3% | 118% | 99.9% | 122% | 111% | 88.7% | 87.2% | 76.5% | 58.8% | 62% | 6.14% | 110% | 118% | 128% | 106% | 112% | 117% | 115% | 113% | 116% | 117% | 27.7% | 107% | 111% | 105% | 126% | 117% | 112% | 108% | 103% | 99.2% | 102% | 23.6%
3 | Cn1c(=O)c2c(ncn2CC(O)CO)n(C)c1=O (centres undefined) | 106% | 109% | 114% | 119% | 121% | 136% | 103% | 120% | 130% | 103% | 111% | 119% | 98% | 100% | 109% | 104% | 108% | 103% | 103% | 103% | 95.3% | 58.2% | 116% | 116% | 115% | 128% | 118% | 115% | 128% | 120% | 111% | 99.4% | 62.7%
4 | COC1=CC=C2C(=CC=NC2=C1)OC3=CC=C(NC(=O)\C4=C(C)\N(CC(C)(C)O)N(C4=O)C5=CC=CC=C5)C=C3F | 124% | 116% | 104% | 115% | 132% | 120% | 108% | 107% | 125% | 110% | 105% | – | – | – | – | – | – | – | – | – | – | – | – | – | – | – | – | – | – | – | – | – | –
5 | CC(=O)SCC(Cc1ccccc1)C(=O)NCC(=O)OCc1ccccc1 (centres undefined) | 88.4% | 85.1% | 102% | 104% | 102% | 106% | 107% | 88.9% | 63.9% | 14.7% | 9.71% | 81.7% | 82.6% | 80.3% | 93.4% | 84.3% | 89.4% | 95.2% | 95% | 72.1% | 15.1% | 10.7% | 78.2% | 74.3% | 86.7% | 85.6% | 96.9% | 98.4% | 95.6% | 76.8% | 65.6% | 13.4% | 13.2%
6 | CN(C)c1ccc(C(=O)NCCCCCCC(=O)NO)cc1 | 106% | 103% | 104% | 94.9% | 106% | 83.5% | 112% | 89% | 7.42% | 3.13% | 3.88% | 91.1% | 90.6% | 103% | 92.3% | 95.8% | 99.8% | 91.4% | 92% | 6.22% | 2.81% | 2.37% | 102% | 103% | 124% | 106% | 112% | 105% | 106% | 89% | 7.05% | 3.1% | 3.05%
7 | CCN(CC)CCOC1=CC=C(NC2=NC=C3\C=C(/C(=O)N(C)C3=N2)C4=C(Cl)C=CC=C4Cl)C=C1 | 116% | 138% | 121% | 115% | 108% | 96.4% | 97.5% | 80.5% | 16.1% | 10.1% | 2.65% | – | – | – | – | – | – | – | – | – | – | – | – | – | – | – | – | – | – | – | – | – | –
8 | CC(C)[C@H](CO)Nc1nc(Nc2ccc(C(=O)O)c(Cl)c2)c2ncn(C(C)C)c2n1 | 116% | 126% | 122% | 132% | 128% | 118% | 109% | 108% | 79.4% | 107% | 29.6% | 119% | 116% | 118% | 128% | 134% | 131% | 131% | 115% | 87.3% | 111% | 36.1% | 122% | 125% | 123% | 137% | 124% | 140% | 127% | 122% | 90.7% | 137% | 44.1%
9 | CCOc1cc2c(c(F)c1OCC)C(=N)N(CC(=O)c1cc(N3CCOCC3)c(OC)c(C(C)(C)C)c1)C2 | 98.4% | 121% | 118% | 138% | 115% | 148% | 131% | 125% | 142% | 127% | 118% | 109% | 112% | 104% | 109% | 130% | 108% | 123% | 121% | 122% | 135% | 126% | 113% | 122% | 121% | 129% | 131% | 124% | 124% | 139% | 141% | 138% | 130%
10 | CC(C)c1ccc2oc3nc(N)c(C(=O)O)cc3c(=O)c2c1 | – | – | – | – | – | – | – | – | – | – | – | 121% | 121% | 128% | 137% | 136% | 128% | 123% | 134% | 133% | 130% | 122% | – | – | – | – | – | – | – | – | – | – | –

— the supplement of paper PMC11451515
